In patent US20230085307A1, “PYRIDAZINONE COMPOUND AND HERBICIDE” (NISSAN CHEMICAL CORPORATION, priority 2019, published 2023):

Legend:
[1] = tested on: false cleavers; assay: Test Example 5: herbicidal effect by foliage application, plastic box (Table 20, symbol Q); assay type: in vivo, false cleavers (Galium spurium)
In short: (§1)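 Post-emergence foliar test in sterilized diluvial soil. Compound applied as water-diluted emulsion at a predetermined rate to 14-day-old plants; evaluation at three weeks.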

[2] = tested on: Italian ryegrass; assay: Test Example 4: herbicidal effect by soil treatment (Table 19, symbol K); assay type: in vivo, Italian ryegrass (Lolium multiflorum)
In short: (§2)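 Emulsion of test compound, water-diluted to predetermined amount, sprayed on soil after sowing (seed depth ~1.5 cm, sterilized diluvial soil). Greenhouse, 25–30° C. Effect graded at three weeks post-spray.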

[3] = tested on: persian speedwell; assay: Test Example 5: herbicidal effect by foliage application, plastic box (Table 20, symbol R); assay type: in vivo, Persian speedwell (Veronica persica)
In short: as §1

[4] = tested on: barnyard grass; assay: Test Example 5: herbicidal effect by foliage application, plastic box (Table 20, symbol H); assay type: in vivo, barnyard grass (Echinochloa crus-galli)
In short: as §1

[5] = tested on: blackgrass; assay: Test Example 5: herbicidal effect by foliage application, plastic box (Table 20, symbol J); assay type: in vivo, blackgrass (Alopecurus myosuroides)
In short: as §1

[6] = tested on: barnyard grass; assay: Test Example 3: herbicidal effect by foliage application, Wagner pot (Table 18, symbol H); assay type: in vivo, barnyard grass (Echinochloa crus-galli); conditions: for herbicidal effect on barnyard grass (H): 320 g/ha
In short: (§3)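 Plants were sown in alluvial soil held under 0.1–0.5 cm standing water and grown 14 days in a greenhouse at 25–30 °C. An emulsifiable formulation, water-diluted to the set dose, was then sprayed onto the foliage, and effects were scored three weeks later using previously defined criteria.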

[7] = tested on: blackgrass; assay: Test Example 4: herbicidal effect by soil treatment (Table 19, symbol J); assay type: in vivo, blackgrass (Alopecurus myosuroides)
In short: as §2

[8] = tested on: wild oat; assay: Test Example 5: herbicidal effect by foliage application, plastic box (Table 20, symbol I); assay type: in vivo, wild oat (Avena fatua)
In short: as §1

[9] = tested on: windgrass; assay: Test Example 5: herbicidal effect by foliage application, plastic box (Table 20, symbol L); assay type: in vivo, windgrass (Apera spica-venti)
In short: as §1

[10] = tested on: Japanese bulrush; assay: Test Example 1: herbicidal activity, application before weed generation under submerged conditions (Table 16, symbol B); assay type: in vivo, Japanese bulrush (Schoenoplectus juncoides)
In short: (§4)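 Emulsion formulation, water-diluted to set dose, was put onto the flooded surface (4 cm depth, alluvial soil) the same day weeds were sown and 2.5-leaf rice transplanted. After 3 weeks at 25-30 °C under glass, each species was rated 0 (≤5% kill) to 5 (≥90% kill).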

[11] = tested on: lambsquarters; assay: Test Example 5: herbicidal effect by foliage application, plastic box (Table 20, symbol O); assay type: in vivo, lambsquarters (Chenopodium album)
In short: as §1

[12] = tested on: southern crabgrass; assay: Test Example 4: herbicidal effect by soil treatment (Table 19, symbol F); assay type: in vivo, southern crabgrass (Digitaria ciliaris)
In short: as §2

[13] = tested on: Chinese sprangletop; assay: Test Example 3: herbicidal effect by foliage application, Wagner pot (Table 18, symbol D); assay type: in vivo, chinese sprangletop (Leptochloa chinensis); conditions: for herbicidal effect on Chinese sprangletop (D): 320 g/ha
In short: as §3

[14] = tested on: wild oat; assay: Test Example 4: herbicidal effect by soil treatment (Table 19, symbol I); assay type: in vivo, wild oat (Avena fatua)
In short: as §2

[15] = tested on: redroot pigweed; assay: Test Example 4: herbicidal effect by soil treatment (Table 19, symbol N); assay type: in vivo, redroot pigweed (Amaranthus retroflexus)
In short: as §2

[16] = tested on: southern crabgrass; assay: Test Example 5: herbicidal effect by foliage application, plastic box (Table 20, symbol F); assay type: in vivo, southern crabgrass (Digitaria ciliaris)
In short: as §1

[17] = tested on: oval-leafed pondweed; assay: Test Example 1: herbicidal activity, application before weed generation under submerged conditions (Table 16, symbol C); assay type: in vivo, oval-leafed pondweed (Monochoria vaginalis)
In short: as §4

[18] = foliage application, 320 g/ha, three weeks after application
[19] = amount of applied herbicide 320 g/ha
[20] = amount of applied herbicide 320 g/ha, foliage application after 14-day growth, evaluated three weeks after application
[21] = foliage application, 390 g/ha, three weeks after application
[22] = amount of applied herbicide 390 g/ha

CCCC(=O)Oc1c(C)nn(C)c(=O)c1-c1c(-c2ccccc2OCC)sc2cc(Cl)ccc12 [3-040]
Q: false cleavers, herbicidal effect grade [1, 18]: 5 (Herbicidal rate of 90% or more (almost completely withered))
K: Italian ryegrass, herbicidal effect grade [2, 19]: 0 (Herbicidal rate of 5% or less (almost no effect))
R: persian speedwell, herbicidal effect grade [3, 18]: 4 (Herbicidal rate of 70% or more and less than 90%)
H: barnyard grass, herbicidal effect grade [4, 18]: 5 (Herbicidal rate of 90% or more (almost completely withered))
J: blackgrass, herbicidal effect grade [5, 18]: 5 (Herbicidal rate of 90% or more (almost completely withered))
herbicidal effect on barnyard grass (H) [6]: 5 (Herbicidal rate of 90% or more (almost completely withered))
J: blackgrass, herbicidal effect grade [7, 19]: 0 (Herbicidal rate of 5% or less (almost no effect))
I: wild oat, herbicidal effect grade [8, 18]: 1 (Herbicidal rate of 5% or more and less than 20%)
L: windgrass, herbicidal effect grade [9, 18]: 5 (Herbicidal rate of 90% or more (almost completely withered))
Herbicidal effect, B: Japanese bulrush [10, 19]: 3 (Herbicidal rate of 40% or more and less than 70%)
O: lambsquarters, herbicidal effect grade [11, 18]: 2 (Herbicidal rate of 20% or more and less than 40%)
F: southern crabgrass, herbicidal effect grade [12, 19]: 1 (Herbicidal rate of 5% or more and less than 20%)
herbicidal effect on Chinese sprangletop (D) [13]: 0 (Herbicidal rate of 5% or less (almost no effect))
I: wild oat, herbicidal effect grade [14, 19]: 0 (Herbicidal rate of 5% or less (almost no effect))
N: redroot pigweed, herbicidal effect grade [15, 19]: 4 (Herbicidal rate of 70% or more and less than 90%)
F: southern crabgrass, herbicidal effect grade [16, 18]: 4 (Herbicidal rate of 70% or more and less than 90%)
Herbicidal effect, C: oval-leafed pondweed [17, 19]: 2 (Herbicidal rate of 20% or more and less than 40%)

CCCC(=O)Oc1c(C)nn(C)c(=O)c1-c1c(-c2ccccc2OC)sc2cc(F)c(F)cc12 [5-012]
Herbicidal effect by foliage application, Q: false cleavers [1, 20]: 5 (Herbicidal rate of 90% or more (almost completely withered))
K: Italian ryegrass, herbicidal effect grade [2, 19]: 0 (Herbicidal rate of 5% or less (almost no effect))
Herbicidal effect by foliage application, R: persian speedwell [3, 20]: 3 (Herbicidal rate of 40% or more and less than 70%)
Herbicidal effect by foliage application, H: barnyard grass [4, 20]: 2 (Herbicidal rate of 20% or more and less than 40%)
Herbicidal effect by foliage application, J: blackgrass [5, 20]: 4 (Herbicidal rate of 70% or more and less than 90%)
herbicidal effect on barnyard grass (H) [6]: 4 (Herbicidal rate of 70% or more and less than 90%)
J: blackgrass, herbicidal effect grade [7, 19]: 3 (Herbicidal rate of 40% or more and less than 70%)
Herbicidal effect by foliage application, I: wild oat [8, 20]: 2 (Herbicidal rate of 20% or more and less than 40%)
Herbicidal effect by foliage application, L: windgrass [9, 20]: 1 (Herbicidal rate of 5% or more and less than 20%)
Herbicidal effect, B: Japanese bulrush [10, 19]: 3 (Herbicidal rate of 40% or more and less than 70%)
Herbicidal effect by foliage application, O: lambsquarters [11, 20]: 3 (Herbicidal rate of 40% or more and less than 70%)
F: southern crabgrass, herbicidal effect grade [12, 19]: 3 (Herbicidal rate of 40% or more and less than 70%)
herbicidal effect on Chinese sprangletop (D) [13]: 2 (Herbicidal rate of 20% or more and less than 40%)
I: wild oat, herbicidal effect grade [14, 19]: 3 (Herbicidal rate of 40% or more and less than 70%)
N: redroot pigweed, herbicidal effect grade [15, 19]: 5 (Herbicidal rate of 90% or more (almost completely withered))
Herbicidal effect by foliage application, F: southern crabgrass [16, 20]: 0 (Herbicidal rate of 5% or less (almost no effect))
Herbicidal effect, C: oval-leafed pondweed [17, 19]: 2 (Herbicidal rate of 20% or more and less than 40%)

CCOc1ccc2c(-c3c(O)c(C)nn(C)c3=O)c(-c3ccccc3OC)sc2c1Cl [7-003]
herbicidal effect on false cleavers (Q) [1, 18]: 5 (Herbicidal rate of 90% or more (almost completely withered))
K: Italian ryegrass, herbicidal effect grade [2, 19]: 0 (Herbicidal rate of 5% or less (almost no effect))
herbicidal effect on persian speedwell (R) [3, 18]: 5 (Herbicidal rate of 90% or more (almost completely withered))
herbicidal effect on barnyard grass (H) [4, 18]: 2 (Herbicidal rate of 20% or more and less than 40%)
herbicidal effect on blackgrass (J) [5, 18]: 4 (Herbicidal rate of 70% or more and less than 90%)
Herbicidal effect on H (barnyard grass), foliage application [6, 19]: 4 (Herbicidal rate of 70% or more and less than 90%)
J: blackgrass, herbicidal effect grade [7, 19]: 0 (Herbicidal rate of 5% or less (almost no effect))
herbicidal effect on wild oat (I) [8, 18]: 0 (Herbicidal rate of 5% or less (almost no effect))
herbicidal effect on windgrass (L) [9, 18]: 3 (Herbicidal rate of 40% or more and less than 70%)
Herbicidal effect, B: Japanese bulrush [10, 19]: 3 (Herbicidal rate of 40% or more and less than 70%)
herbicidal effect on lambsquarters (O) [11, 18]: 5 (Herbicidal rate of 90% or more (almost completely withered))
F: southern crabgrass, herbicidal effect grade [12, 19]: 0 (Herbicidal rate of 5% or less (almost no effect))
Herbicidal effect on D (Chinese sprangletop), foliage application [13, 19]: 3 (Herbicidal rate of 40% or more and less than 70%)
I: wild oat, herbicidal effect grade [14, 19]: 0 (Herbicidal rate of 5% or less (almost no effect))
N: redroot pigweed, herbicidal effect grade [15, 19]: 5 (Herbicidal rate of 90% or more (almost completely withered))
herbicidal effect on southern crabgrass (F) [16, 18]: 1 (Herbicidal rate of 5% or more and less than 20%)
Herbicidal effect, C: oval-leafed pondweed [17, 19]: 0 (Herbicidal rate of 5% or less (almost no effect))

CCCC(=O)Oc1c(C)nn(C)c(=O)c1-c1c(-c2ccc(F)cc2)oc2ccc(C)cc12 [9-005]
herbicidal effect on false cleavers (Q) [1, 21]: 4 (Herbicidal rate of 70% or more and less than 90%)
K: Italian ryegrass, herbicidal effect grade [2, 22]: 0 (Herbicidal rate of 5% or less (almost no effect))
herbicidal effect on persian speedwell (R) [3, 21]: 5 (Herbicidal rate of 90% or more (almost completely withered))
herbicidal effect on barnyard grass (H) [4, 21]: 0 (Herbicidal rate of 5% or less (almost no effect))
herbicidal effect on blackgrass (J) [5, 21]: 0 (Herbicidal rate of 5% or less (almost no effect))
Herbicidal effect on H (barnyard grass), foliage application [6, 22]: 3 (Herbicidal rate of 40% or more and less than 70%)
J: blackgrass, herbicidal effect grade [7, 22]: 0 (Herbicidal rate of 5% or less (almost no effect))
herbicidal effect on wild oat (I) [8, 21]: 0 (Herbicidal rate of 5% or less (almost no effect))
herbicidal effect on windgrass (L) [9, 21]: 0 (Herbicidal rate of 5% or less (almost no effect))
Herbicidal effect, B: Japanese bulrush [10, 22]: 4 (Herbicidal rate of 70% or more and less than 90%)
herbicidal effect on lambsquarters (O) [11, 21]: 3 (Herbicidal rate of 40% or more and less than 70%)
F: southern crabgrass, herbicidal effect grade [12, 22]: 0 (Herbicidal rate of 5% or less (almost no effect))
Herbicidal effect on D (Chinese sprangletop), foliage application [13, 22]: 0 (Herbicidal rate of 5% or less (almost no effect))
I: wild oat, herbicidal effect grade [14, 22]: 0 (Herbicidal rate of 5% or less (almost no effect))
N: redroot pigweed, herbicidal effect grade [15, 22]: 3 (Herbicidal rate of 40% or more and less than 70%)
herbicidal effect on southern crabgrass (F) [16, 21]: 0 (Herbicidal rate of 5% or less (almost no effect))
Herbicidal effect, C: oval-leafed pondweed [17, 22]: 3 (Herbicidal rate of 40% or more and less than 70%)
